Assay results: patent US20240392271A1, “ENGINEERED CASX REPRESSOR SYSTEMS” (Scribe Therapeutics Inc., priority 2021, published 2024)

How the values were obtained:
HBEGF locus = assay type: cell-based, human; details: dCasX491-KRAB lentiviral library, spacer 34.28, HEK293T, 2 ng/ml diphtheria toxin 48 hours
B2M promoter = assay: B2M repression with gRNAs tiled across the B2M promoter, dXR1 vs ELXR #1 (Example 10); assay type: cell-based, human; details: HEK293T, six days after lipofection, unlike the effects seen with dXR1
Protocol: ELXR #1 containing the ZIM3-KRAB domain, as described in Example 6, and dXR1, as described in Example 1, were assessed in this experiment. Various gRNAs with scaffold 174 containing a B2M-targeting spacer were used in this experiment.
The next day, cells were selected with puromycin for four additional days. […] HEK293T cells transfected with either ELXR #1 or dXR1 with a non-targeting gRNA was included as an experimental control. FIG. 21A is a schematic illustrating the tiling of the various B2M-targeting gRNAs (spacers listed in Table 31) within a ˜1 KB window of the B2M promoter.

Zim3: ZIM3 KRAB domain, SEQ ID NO: 337 [reference compound]
log2 (fold change) in abundance of the KRAB domain before and after selection (HBEGF locus): 1.7787

spacer 7.165: B2M-targeting, ELXR-specific spacer, UCCCUAUGUCCUUGCUGUUU, SEQ ID NO: 59667 (listed as RNA, chemistry not fully specified)
B2M repression (HLA-negative cells) mediated by ELXR #1 with the spacer (B2M promoter): meaningful B2M repression
